Values belong to the compound of their own block, whether it stands above or below them.
Columns and labels:
Type in all cases: physicochemical
[1] = Mean intrinsic dissolution studies
Excerpt: Mean intrinsic dissolution rates for exemplary batches of the two forms are shown in Table cC-2 for 3 batches of Form I (SD and % CV for one batch shown) and for Form II.

[2] = Interconversion slurries of Form I and Form II
Procedure: As shown in the interconversion of slurries experiment summarized below in the Examples in Table B, slurries of Forms I and II are prepared in 2-propanol (IPA) and […] (MEK) at ambient, sub-ambient, and elevated temperatures. In 2-propanol, conversion of Form I to Form II appears to be solubility driven at ambient and sub-ambient temperatures, with little apparent change observed in the ratio of Forms I and II by XRPD analysis over 3 days. Extending the interconversion period to 8 days at room temperature left only a trace of Form I remaining. In 2-propanol, at elevated temperature, only Form II is obtained.
Interconversion studies by slurrying of Form I and Form II are shown in the following Table B in which the starting solid was a mixture of Form I and Form II; IPA is isopropyl alcohol (isopropanol) and MEK is methyl ethyl ketone (2-butanone).

[3] = Stability of Form I and Form II under various storage conditions
Excerpt: In each case, the test material was first placed in Primary Packaging Material (LLDPE bag within a HMHDPE/LDPE/LDPE blend bag, and then heat sealed). The Primary Packaging Material was placed in Secondary Packaging Material (HDPE drum). All other impurities were less than 1% at each time point.

Mean intrinsic dissolution rate ([1]; 0.1N Hydrochloric Acid): 9.4 mg/min/cm^2
Mean intrinsic dissolution rate ([1]; Acetate buffer, pH 4.5): 2.1 mg/min/cm^2
Mean intrinsic dissolution rate ([1]; Phosphate buffer, pH 6.8): 0.004 mg/min/cm^2
Mean intrinsic dissolution rate ([1]; Phosphate buffer, pH 7.6): 0.02 mg/min/cm^2
Mean intrinsic dissolution rate ([1]; Water): 2.0 mg/min/cm^2
Compound: CC[C@H]1OC(=O)[C@@](C)(F)C(=O)[C@H](C)[C@@H](O[C@@H]2O[C@H](C)C[C@H](N(C)C)[C@H]2O)[C@](C)(OC)C[C@@H](C)C(=O)[C@H](C)[C@H]2N(CCCCn3cc(-c4cccc(N)c4)nn3)C(=O)O[C@]12C [Form I Batch A]

XRPD Result ([2]; slurry in IPA, 2-8° C. 3 days): Form I + II
XRPD Result ([2]; slurry in IPA, 2-8° C. 5 days (8 days total), continuation of previous slurry): Form I + II
XRPD Result ([2]; slurry in IPA, 60° C. 3 days): Form II
XRPD Result ([2]; slurry in IPA, RT 3 days): Form I + II
XRPD Result ([2]; slurry in MEK, 2-8° C. 3 days): Form II
XRPD Result ([2]; slurry in MEK, 60° C. 3 days (6 days total), continuation with additional solids): Form II
XRPD Result ([2]; slurry in MEK, RT 3 days): Form II
Compound: CC[C@H]1OC(=O)[C@@](C)(F)C(=O)[C@H](C)[C@@H](O[C@@H]2O[C@H](C)C[C@H](N(C)C)[C@H]2O)[C@](C)(OC)C[C@@H](C)C(=O)[C@H](C)[C@H]2N(CCCCn3cc(-c4cccc(N)c4)nn3)C(=O)O[C@]12C [CEM-101 Form A and B Solids]

3-Ethynylaniline ([3]; 2-8° C., 3 Month): 0.01%
Assay (on hydrous basis) ([3]; 2-8° C., 3 Month): 98.4%
Chromatographic Purity ([3]; 2-8° C., 3 Month): 98.1%
Water ([3]; 2-8° C., 3 Month): 1.56%
3-Ethynylaniline ([3]; 2-8° C., 6 Month): 0.01%
Assay (on hydrous basis) ([3]; 2-8° C., 6 Month): 98.3%
Chromatographic Purity ([3]; 2-8° C., 6 Month): 98.3%
Water ([3]; 2-8° C., 6 Month): 1.47%
3-Ethynylaniline ([3]; 2-8° C., 12 Month): Not Detected
Assay (on hydrous basis) ([3]; 2-8° C., 12 Month): 98.2%
Chromatographic Purity ([3]; 2-8° C., 12 Month): 98.4%
Water ([3]; 2-8° C., 12 Month): 1.51%
3-Ethynylaniline ([3]; 2-8° C., Initial): 0.01%
Assay (on hydrous basis) ([3]; 2-8° C., Initial): 99.0%
Chromatographic Purity ([3]; 2-8° C., Initial): 98.2%
Water ([3]; 2-8° C., Initial): 0.92%
3-Ethynylaniline ([3]; 25° C./60% RH, 3 Month): 0.01%
Assay (on hydrous basis) ([3]; 25° C./60% RH, 3 Month): 98.3%
Chromatographic Purity ([3]; 25° C./60% RH, 3 Month): 98.1%
Water ([3]; 25° C./60% RH, 3 Month): 1.59%
3-Ethynylaniline ([3]; 25° C./60% RH, 6 Month): Not Detected
Assay (on hydrous basis) ([3]; 25° C./60% RH, 6 Month): 98.2%
Chromatographic Purity ([3]; 25° C./60% RH, 6 Month): 98.4%
Water ([3]; 25° C./60% RH, 6 Month): 1.75%
3-Ethynylaniline ([3]; 25° C./60% RH, 12 Month): Not Detected
Assay (on hydrous basis) ([3]; 25° C./60% RH, 12 Month): 98.1%
Chromatographic Purity ([3]; 25° C./60% RH, 12 Month): 98.4%
Water ([3]; 25° C./60% RH, 12 Month): 1.78%
3-Ethynylaniline ([3]; 25° C./60% RH, Initial): 0.01%
Assay (on hydrous basis) ([3]; 25° C./60% RH, Initial): 99.0%
Chromatographic Purity ([3]; 25° C./60% RH, Initial): 98.2%
Water ([3]; 25° C./60% RH, Initial): 0.92%
3-Ethynylaniline ([3]; 40° C./75% RH, 3 Month): 0.01%
Assay (on hydrous basis) ([3]; 40° C./75% RH, 3 Month): 98.2%
Chromatographic Purity ([3]; 40° C./75% RH, 3 Month): 98.4%
Water ([3]; 40° C./75% RH, 3 Month): 1.65%
3-Ethynylaniline ([3]; 40° C./75% RH, 12 Month): 0.01%
Assay (on hydrous basis) ([3]; 40° C./75% RH, 12 Month): 98.1%
Chromatographic Purity ([3]; 40° C./75% RH, 12 Month): 98.3%
Water ([3]; 40° C./75% RH, 12 Month): 1.82%
3-Ethynylaniline ([3]; 40° C./75% RH, Initial): 0.01%
Assay (on hydrous basis) ([3]; 40° C./75% RH, Initial): 99.0%
Chromatographic Purity ([3]; 40° C./75% RH, Initial): 98.2%
Water ([3]; 40° C./75% RH, Initial): 0.92%
Compound: CC[C@H]1OC(=O)[C@@](C)(F)C(=O)[C@H](C)[C@@H](O[C@@H]2O[C@H](C)C[C@H](N(C)C)[C@H]2O)[C@](C)(OC)C[C@@H](C)C(=O)[C@H](C)[C@H]2N(CCCCn3cc(-c4cccc(N)c4)nn3)C(=O)O[C@]12C [Form I (Lot 4)]

Second part, the compound before the results:

Compound: CC[C@H]1OC(=O)[C@@](C)(F)C(=O)[C@H](C)[C@@H](O[C@@H]2O[C@H](C)C[C@H](N(C)C)[C@H]2O)[C@](C)(OC)C[C@@H](C)C(=O)[C@H](C)[C@H]2N(CCCCn3cc(-c4cccc(N)c4)nn3)C(=O)O[C@]12C [Form I Batch B]
Mean intrinsic dissolution rate ([1]; 0.1N Hydrochloric Acid): 10.6 mg/min/cm^2
Mean intrinsic dissolution rate ([1]; Acetate buffer, pH 4.5): 2.8 mg/min/cm^2
Mean intrinsic dissolution rate ([1]; Phosphate buffer, pH 6.8): 0.03 mg/min/cm^2
Mean intrinsic dissolution rate ([1]; Phosphate buffer, pH 7.6): 0.001 mg/min/cm^2
Mean intrinsic dissolution rate ([1]; Water): 0.7 mg/min/cm^2

Compound: CC[C@H]1OC(=O)[C@@](C)(F)C(=O)[C@H](C)[C@@H](O[C@@H]2O[C@H](C)C[C@H](N(C)C)[C@H]2O)[C@@](C)(OC)C[C@@H](C)C(=O)[C@H](C)[C@H]2N(CCCCn3cc(-c4cccc(N)c4)nn3)C(=O)O[C@]12C [Form I Batch C]
Mean intrinsic dissolution rate ([1]; 0.1N Hydrochloric Acid): 7.9 mg/min/cm^2
Mean intrinsic dissolution rate ([1]; Acetate buffer, pH 4.5): 2.7 mg/min/cm^2
Mean intrinsic dissolution rate ([1]; Phosphate buffer, pH 6.8): 0.02 mg/min/cm^2
Mean intrinsic dissolution rate ([1]; Water): 1.6 mg/min/cm^2

Compound: CC[C@H]1OC(=O)[C@@](C)(F)C(=O)[C@H](C)[C@@H](O[C@@H]2O[C@H](C)C[C@H](N(C)C)[C@H]2O)[C@](C)(OC)C[C@@H](C)C(=O)[C@H](C)[C@H]2N(CCCCn3cc(-c4cccc(N)c4)nn3)C(=O)O[C@]12C [Form I (Lot 3)]
3-Ethynylaniline ([3]; 2-8° C., 3 Month): 0.01%
Assay (on hydrous basis) ([3]; 2-8° C., 3 Month): 98.9%
Chromatographic Purity ([3]; 2-8° C., 3 Month): 98.1%
Water ([3]; 2-8° C., 3 Month): 1.63%
3-Ethynylaniline ([3]; 2-8° C., 6 Month): Not Detected
Assay (on hydrous basis) ([3]; 2-8° C., 6 Month): 98.8%
Chromatographic Purity ([3]; 2-8° C., 6 Month): 98.4%
Water ([3]; 2-8° C., 6 Month): 1.61%
3-Ethynylaniline ([3]; 2-8° C., 12 Month): Not Detected
Assay (on hydrous basis) ([3]; 2-8° C., 12 Month): 98.7%
Chromatographic Purity ([3]; 2-8° C., 12 Month): 98.5%
Water ([3]; 2-8° C., 12 Month): 1.69%
3-Ethynylaniline ([3]; 2-8° C., Initial): 0.01%
Assay (on hydrous basis) ([3]; 2-8° C., Initial): 99.5%
Chromatographic Purity ([3]; 2-8° C., Initial): 98.3%
Water ([3]; 2-8° C., Initial): 1.11%
3-Ethynylaniline ([3]; 25° C./60% RH, 3 Month): 0.01%
Assay (on hydrous basis) ([3]; 25° C./60% RH, 3 Month): 98.7%
Chromatographic Purity ([3]; 25° C./60% RH, 3 Month): 98.1%
Water ([3]; 25° C./60% RH, 3 Month): 1.65%
3-Ethynylaniline ([3]; 25° C./60% RH, 6 Month): Not Detected
Assay (on hydrous basis) ([3]; 25° C./60% RH, 6 Month): 98.6%
Chromatographic Purity ([3]; 25° C./60% RH, 6 Month): 98.3%
Water ([3]; 25° C./60% RH, 6 Month): 1.71%
3-Ethynylaniline ([3]; 25° C./60% RH, 12 Month): Not Detected
Assay (on hydrous basis) ([3]; 25° C./60% RH, 12 Month): 98.5%
Chromatographic Purity ([3]; 25° C./60% RH, 12 Month): 98.4%
Water ([3]; 25° C./60% RH, 12 Month): 1.75%
3-Ethynylaniline ([3]; 25° C./60% RH, Initial): 0.01%
Assay (on hydrous basis) ([3]; 25° C./60% RH, Initial): 99.5%
Chromatographic Purity ([3]; 25° C./60% RH, Initial): 98.3%
Water ([3]; 25° C./60% RH, Initial): 1.11%
3-Ethynylaniline ([3]; 40° C./75% RH, 3 Month): 0.01%
Assay (on hydrous basis) ([3]; 40° C./75% RH, 3 Month): 98.5%
Chromatographic Purity ([3]; 40° C./75% RH, 3 Month): 98.0%
Water ([3]; 40° C./75% RH, 3 Month): 1.68%
3-Ethynylaniline ([3]; 40° C./75% RH, 12 Month): 0.01%
Assay (on hydrous basis) ([3]; 40° C./75% RH, 12 Month): 98.3%
Chromatographic Purity ([3]; 40° C./75% RH, 12 Month): 98.3%
Water ([3]; 40° C./75% RH, 12 Month): 1.84%
3-Ethynylaniline ([3]; 40° C./75% RH, Initial): 0.01%
Assay (on hydrous basis) ([3]; 40° C./75% RH, Initial): 99.5%
Chromatographic Purity ([3]; 40° C./75% RH, Initial): 98.3%
Water ([3]; 40° C./75% RH, Initial): 1.11%

From patent US8759500B2, “Crystalline forms of a macrolide, and uses therefor” (Cempra Pharmaceuticals, Inc., priority 2010, dated 2014)
